Test results: ChEMBL document CHEMBL1201862, “PubChem BioAssay data set” (2004)
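The compound was tested at five concentrations on cells cultured in 96-well plates, with a 48-hour exposure period. GI50 = concentration required for 50% inhibition of growth.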 Activity calls are given as the source filed them. Rule as the data show it: active = GI50 up to about 1.1 µM and inactive = higher.

Assays:
Assay in all cases: growth of human tumour cells (NCI), 48 h
HCT-15 = tested on: HCT-15
Malme-3M = tested on: Malme-3M
KM12 = tested on: KM12
UACC-257 = tested on: UACC-257
SF-539 = tested on: SF-539
OVCAR-8 = tested on: OVCAR-8
IGROV-1 = tested on: IGROV-1
SK-MEL-2 = tested on: SK-MEL-2
OVCAR-4 = tested on: OVCAR-4
NCI-H522 = tested on: NCI-H522
CCRF-CEM = tested on: CCRF-CEM
EKVX = tested on: EKVX
RXF 393 = tested on: RXF 393
UO-31 = tested on: UO-31
SF-268 = tested on: SF-268
U-251 = tested on: U-251
SK-MEL-5 = tested on: SK-MEL-5
OVCAR-5 = tested on: OVCAR-5
HCT-116 = tested on: HCT-116
SN12C = tested on: SN12C

SMILES | GI50 (HCT-15) [µM] | GI50 (Malme-3M) | GI50 (KM12) | GI50 (UACC-257) | GI50 (SF-539) | GI50 (OVCAR-8) | GI50 (IGROV-1) | GI50 (SK-MEL-2) | GI50 (OVCAR-4) | GI50 (NCI-H522) | GI50 (CCRF-CEM) | GI50 (EKVX) | GI50 (RXF 393) | GI50 (UO-31) | GI50 (SF-268) | GI50 (U-251) | GI50 (SK-MEL-5) | GI50 (OVCAR-5) | GI50 (HCT-116) | GI50 (SN12C)
Cc1ccccc1OCC(COC(=O)Nc1ccccc1)OC(=O)Nc1ccccc1 (configuration not stated) | > 100 | 30.9 µM (inactive) | 26.3 µM (inactive) | > 100 µM (inactive) | 4.15 µM (inactive) | 26.5 µM (inactive) | > 100 µM (inactive) | 22 µM (inactive) | 13.1 µM (inactive) | 19.6 µM (inactive) | > 100 µM (inactive) | > 100 µM (inactive) | 7.24 µM (inactive) | 34.6 µM (inactive) | 50.9 µM (inactive) | 38 µM (inactive) | > 100 µM (inactive) | > 100 µM (inactive) | 15.8 µM (inactive) | 26.8 µM (inactive)
Cc1cccc(N2C(=O)C3c4[nH]c5ccc(C)cc5c4C4CCC(C(C)(C)C)CC4C3C2=O)c1 (configuration not stated) | 53.7 | 24.3 µM (inactive) | 15.8 µM (inactive) | 46.3 µM (inactive) | – | 19 µM (inactive) | 26.5 µM (inactive) | 38.1 µM (inactive) | 23.1 µM (inactive) | 19.9 µM (inactive) | 21.4 µM (inactive) | 10.4 µM (inactive) | – | 43.4 µM (inactive) | 15.5 µM (inactive) | 23.6 µM (inactive) | 32.5 µM (inactive) | 32.7 µM (inactive) | – | –
CC(/C=N/N=C(N)N)=N\N=C(N)N | 94 | 33.9 µM (inactive) | 2.83 µM (inactive) | 140 µM (inactive) | 8.04 µM (inactive) | 4.55 µM (inactive) | 279 µM (inactive) | 12.8 µM (inactive) | 3.4 µM (inactive) | 29.7 µM (inactive) | 4.73 µM (inactive) | 29.1 µM (inactive) | 32.3 µM (inactive) | 9.82 µM (inactive) | 3.56 µM (inactive) | 18.5 µM (inactive) | 191 µM (inactive) | – | 6.41 µM (inactive) | 106 µM (inactive)
Cc1c2c(cc3c1[nH]c1ccccc13)C(c1ccc(F)cc1)=NCC2 | 0.904 | 1.68 µM (inactive) | 0.869 µM (active) | 1.03 µM (active) | 1.13 µM (inactive) | 1.81 µM (inactive) | 0.855 µM (active) | 1.21 µM (inactive) | 0.703 µM (active) | 1.08 µM (active) | 1.14 µM (inactive) | 2.07 µM (inactive) | 1.42 µM (inactive) | 1.08 µM (active) | 2.18 µM (inactive) | 1.43 µM (inactive) | 1.72 µM (inactive) | 1.74 µM (inactive) | 0.752 µM (active) | 1.63 µM (inactive)
CCOC(C)OC1CC(n2cc(C)c(=O)[nH]c2=O)OC1CO (configuration not stated) | > 100 | > 100 µM (inactive) | > 100 µM (inactive) | > 100 µM (inactive) | > 100 µM (inactive) | > 100 µM (inactive) | > 100 µM (inactive) | > 100 µM (inactive) | > 100 µM (inactive) | > 100 µM (inactive) | 82.6 µM (inactive) | > 100 µM (inactive) | > 100 µM (inactive) | > 100 µM (inactive) | > 100 µM (inactive) | > 100 µM (inactive) | – | > 100 µM (inactive) | > 100 µM (inactive) | > 100 µM (inactive)
CC1=C[C@]2(CC(C)C3C(CC4(C)C5CCC6C(C)(C)C(=O)CC[C@@]67C[C@@]57CC[C@]34C)O2)OC1=O (some centres not stated) | 7.64 | 44.4 µM (inactive) | 18.9 µM (inactive) | 8.63 µM (inactive) | 13.8 µM (inactive) | 25.2 µM (inactive) | 6.32 µM (inactive) | 34.4 µM (inactive) | 19 µM (inactive) | – | > 100 µM (inactive) | 44.8 µM (inactive) | 5.11 µM (inactive) | – | 33.9 µM (inactive) | 14.6 µM (inactive) | 2.65 µM (inactive) | 2.21 µM (inactive) | 3.33 µM (inactive) | 41.1 µM (inactive)
O=S(=O)(O)c1cc2ccc1/C=C\c1ccc(cc1S(=O)(=O)O)/N=N\c1ccc(c(S(=O)(=O)O)c1)/C=C\c1ccc(cc1S(=O)(=O)O)/N=N\2 | > 100 | > 100 µM (inactive) | > 100 µM (inactive) | > 100 µM (inactive) | > 100 µM (inactive) | > 100 µM (inactive) | > 100 µM (inactive) | > 100 µM (inactive) | > 86.1 µM (inactive) | > 100 µM (inactive) | > 100 µM (inactive) | > 100 µM (inactive) | > 100 µM (inactive) | > 100 µM (inactive) | > 100 µM (inactive) | > 100 µM (inactive) | > 100 µM (inactive) | > 100 µM (inactive) | > 100 µM (inactive) | > 100 µM (inactive)
CCOC(=O)C(O)(NC(=O)c1ccc(F)cc1)C(F)(F)F (configuration not stated) | > 100 | > 100 µM (inactive) | > 100 µM (inactive) | > 100 µM (inactive) | > 100 µM (inactive) | > 100 µM (inactive) | 57 µM (inactive) | > 100 µM (inactive) | > 100 µM (inactive) | > 100 µM (inactive) | > 100 µM (inactive) | > 100 µM (inactive) | > 100 µM (inactive) | > 100 µM (inactive) | > 100 µM (inactive) | > 100 µM (inactive) | > 100 µM (inactive) | > 100 µM (inactive) | > 100 µM (inactive) | > 100 µM (inactive)
CN(C)CCNC(=O)c1cccc2c1C(=O)c1ccccc1C2=O | 30.7 | 13.1 µM (inactive) | > 58.1 µM (inactive) | 19.5 µM (inactive) | 40.6 µM (inactive) | 29.4 µM (inactive) | 26.4 µM (inactive) | > 37.3 µM (inactive) | 28.2 µM (inactive) | 25.1 µM (inactive) | 23.8 µM (inactive) | 63.8 µM (inactive) | 55 µM (inactive) | 54 µM (inactive) | > 100 µM (inactive) | 31.7 µM (inactive) | 20.5 µM (inactive) | 61.5 µM (inactive) | 25.1 µM (inactive) | 33.7 µM (inactive)
Nc1ncc2c(n1)-c1ccccc1OC2 | > 100 | > 100 µM (inactive) | > 100 µM (inactive) | > 100 µM (inactive) | > 100 µM (inactive) | > 100 µM (inactive) | 40.4 µM (inactive) | > 100 µM (inactive) | > 31.6 µM (inactive) | > 100 µM (inactive) | > 100 µM (inactive) | 94.4 µM (inactive) | > 69.2 µM (inactive) | 45.2 µM (inactive) | > 100 µM (inactive) | > 100 µM (inactive) | > 100 µM (inactive) | > 100 µM (inactive) | > 100 µM (inactive) | > 100 µM (inactive)
COC1C(O)CC(OC2CC(Oc3cc4cc5c(c(O)c4c(O)c3C)C(=O)[C@@H](OC3CC(OC4CC(OC6CC(C)(O)C(OC(C)=O)C(C)O6)C(O)C(C)O4)C(O)C(C)O3)[C@H]([C@H](OC)C(=O)[C@@H](O)[C@@H](C)O)C5)OC(C)C2OC(C)=O)OC1C (some centres not stated) [CHROMOMYCIN] | 0.0138 | 0.00328 µM (active) | < 0.01 µM (active) | < 0.01 µM (active) | 0.00326 µM (active) | < 0.01 µM (active) | 0.0101 µM (active) | 0.00361 µM (active) | < 0.01 µM (active) | 0.00366 µM (active) | < 0.01 µM (active) | 0.00532 µM (active) | 0.00311 µM (active) | 0.0614 µM (active) | 0.00357 µM (active) | 0.00344 µM (active) | < 0.01 µM (active) | < 0.01 µM (active) | 0.00333 µM (active) | 0.0101 µM (active)
COc1cc([C@@H]2c3cc4c(c(O[C@@H]5O[C@H]6CO[C@@H](C)O[C@H]6[C@H](O)[C@@H]5O)c3C[C@H]3COC(=O)[C@@H]32)OCO4)cc(OC)c1O | 14.6 | > 29.9 µM (inactive) | 8.75 µM (inactive) | 5.93 µM (inactive) | 2.81 µM (inactive) | 6.64 µM (inactive) | 8.61 µM (inactive) | 27.3 µM (inactive) | 9.16 µM (inactive) | 2.54 µM (inactive) | 11.9 µM (inactive) | 5.55 µM (inactive) | 3.64 µM (inactive) | 45.6 µM (inactive) | – | 8.17 µM (inactive) | 5.08 µM (inactive) | 97.1 µM (inactive) | 6.78 µM (inactive) | 12.6 µM (inactive)
CCCC[C@H]1[C@@H](OCOc2ccccc2)COC(=O)N1[C@H](C)c1ccccc1 | 15.9 | 15.7 µM (inactive) | 12.9 µM (inactive) | 9.66 µM (inactive) | – | > 49.2 µM (inactive) | 14.7 µM (inactive) | 15.1 µM (inactive) | 10.3 µM (inactive) | 10.3 µM (inactive) | 16.8 µM (inactive) | 25.4 µM (inactive) | 19 µM (inactive) | 11.8 µM (inactive) | 16.6 µM (inactive) | 14.7 µM (inactive) | 4.03 µM (inactive) | 17.3 µM (inactive) | 7.62 µM (inactive) | 10.2 µM (inactive)
COc1cc(C(C)O)c(S(=O)(=O)CC(C)O)nn1 (configuration not stated) | > 100 | > 100 µM (inactive) | > 100 µM (inactive) | > 100 µM (inactive) | > 100 µM (inactive) | > 100 µM (inactive) | > 100 µM (inactive) | – | > 100 µM (inactive) | > 100 µM (inactive) | > 100 µM (inactive) | 75.5 µM (inactive) | 85.3 µM (inactive) | > 100 µM (inactive) | – | – | > 100 µM (inactive) | > 100 µM (inactive) | > 100 µM (inactive) | > 100 µM (inactive)
